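Cultured in 96-well plates, cells were exposed to test compound for 48 hours across five concentrations. Definition used: TGI = concentration required for complete inhibition of growth.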
Key:
Assay in all cases: NCI anticancer screen, dose series, 48 h
RXF 393 renal = tested on: RXF 393 renal
COLO 205 colon = tested on: COLO 205 colon
MCF7 breast = tested on: MCF7 breast
MOLT-4 leukemia = tested on: MOLT-4 leukemia
IGROV1 ovarian = tested on: IGROV1 ovarian
OVCAR-8 ovarian = tested on: OVCAR-8 ovarian
SK-MEL-5 melanoma = tested on: SK-MEL-5 melanoma
UACC-257 melanoma = tested on: UACC-257 melanoma
SW-620 colon = tested on: SW-620 colon
CCRF-CEM leukemia = tested on: CCRF-CEM leukemia
SR leukemia = tested on: SR leukemia
SK-MEL-28 melanoma = tested on: SK-MEL-28 melanoma
CAKI-1 renal = tested on: CAKI-1 renal
HT29 colon = tested on: HT29 colon
MDA-N = tested on: MDA-N
MALME-3M melanoma = tested on: MALME-3M melanoma
K-562 leukemia = tested on: K-562 leukemia
HCT-15 colon = tested on: HCT-15 colon
A549 NSCLC = tested on: A549 NSCLC
SF-295 CNS = tested on: SF-295 CNS
SF-268 CNS = tested on: SF-268 CNS
LOX IMVI melanoma = tested on: LOX IMVI melanoma
RPMI-8226 leukemia = tested on: RPMI-8226 leukemia
SNB-75 CNS = tested on: SNB-75 CNS
MDA-MB-231 breast = tested on: MDA-MB-231 breast
KM12 colon = tested on: KM12 colon
TK-10 renal = tested on: TK-10 renal
UACC-62 melanoma = tested on: UACC-62 melanoma
DU-145 prostate = tested on: DU-145 prostate
NCI-H23 lung = tested on: NCI-H23 lung
PC-3 prostate = tested on: PC-3 prostate
EKVX NSCLC = tested on: EKVX NSCLC
HL-60(TB) leukemia = tested on: HL-60(TB) leukemia
T-47D breast = tested on: T-47D breast
SK-OV-3 ovarian = tested on: SK-OV-3 ovarian
786-0 renal = tested on: 786-0 renal
HCC-2998 colon = tested on: HCC-2998 colon
SN12C renal = tested on: SN12C renal
M14 melanoma = tested on: M14 melanoma
HOP-62 NSCLC = tested on: HOP-62 NSCLC
OVCAR-4 ovarian = tested on: OVCAR-4 ovarian
U251 CNS = tested on: U251 CNS
UO-31 renal = tested on: UO-31 renal
BT-549 breast = tested on: BT-549 breast
HOP-92 NSCLC = tested on: HOP-92 NSCLC
HCT-116 colon = tested on: HCT-116 colon
OVCAR-3 ovarian = tested on: OVCAR-3 ovarian
OVCAR-5 ovarian = tested on: OVCAR-5 ovarian
NCI-H522 lung = tested on: NCI-H522 lung
ACHN renal = tested on: ACHN renal
NCI-H460 lung = tested on: NCI-H460 lung
SF-539 CNS = tested on: SF-539 CNS
NCI-H226 lung = tested on: NCI-H226 lung
SK-MEL-2 melanoma = tested on: SK-MEL-2 melanoma
NCI/ADR-RES ovarian = tested on: NCI/ADR-RES ovarian
MDA-MB-435 = tested on: MDA-MB-435

## CCCCCCCCCC[C@@H](OC(C)=O)[C@@H]1CC[C@@H]([C@@H]2CC[C@@H]([C@@H](O)CC#C/C=C/CCCCCCC[C@@]3(Sc4ccccc4)C[C@H](C)OC3=O)O2)O1
RXF 393 renal
  TGI: > 10 µM
COLO 205 colon
  TGI: > 10 µM
MCF7 breast
  TGI: > 10 µM
MOLT-4 leukemia
  TGI: > 10 µM
IGROV1 ovarian
  TGI: > 10 µM
OVCAR-8 ovarian
  TGI: > 10 µM
SK-MEL-5 melanoma
  TGI: > 10 µM
UACC-257 melanoma
  TGI: > 10 µM
SW-620 colon
  TGI: > 10 µM
CCRF-CEM leukemia
  TGI: > 10 µM
SR leukemia
  TGI: > 10 µM
SK-MEL-28 melanoma
  TGI: > 10 µM
CAKI-1 renal
  TGI: > 10 µM
HT29 colon
  TGI: > 10 µM
MDA-N
  TGI: > 10 µM
MALME-3M melanoma
  TGI: > 10 µM
K-562 leukemia
  TGI: > 10 µM
HCT-15 colon
  TGI: > 10 µM
A549 NSCLC
  TGI: > 10 µM
SF-295 CNS
  TGI: > 10 µM
SF-268 CNS
  TGI: > 10 µM
LOX IMVI melanoma
  TGI: > 10 µM
RPMI-8226 leukemia
  TGI: > 10 µM
SNB-75 CNS
  TGI: > 10 µM
MDA-MB-231 breast
  TGI: > 10 µM
KM12 colon
  TGI: > 10 µM
TK-10 renal
  TGI: > 10 µM
UACC-62 melanoma
  TGI: > 10 µM
DU-145 prostate
  TGI: > 10 µM
NCI-H23 lung
  TGI: > 10 µM
PC-3 prostate
  TGI: > 10 µM
EKVX NSCLC
  TGI: > 10 µM
HL-60(TB) leukemia
  TGI: > 10 µM
T-47D breast
  TGI: > 10 µM
SK-OV-3 ovarian
  TGI: > 10 µM
786-0 renal
  TGI: > 10 µM
HCC-2998 colon
  TGI: > 10 µM
SN12C renal
  TGI: > 10 µM
M14 melanoma
  TGI: > 10 µM
HOP-62 NSCLC
  TGI: > 10 µM

## Cc1c(N2C(=O)C(Cl)C2/C=C/c2ccccc2)c(=O)n(-c2ccccc2)n1C (stereo not drawn)
RXF 393 renal
  TGI: 79.3 µM
OVCAR-4 ovarian
  TGI: 84.6 µM
COLO 205 colon
  TGI: 28 µM
U251 CNS
  TGI: 21.1 µM
MCF7 breast
  TGI: 87.5 µM
UO-31 renal
  TGI: 92.4 µM
MOLT-4 leukemia
  TGI: 50 µM
BT-549 breast
  TGI: > 100 µM
HOP-92 NSCLC
  TGI: 50.2 µM
IGROV1 ovarian
  TGI: 42.8 µM
OVCAR-8 ovarian
  TGI: 56.4 µM
HCT-116 colon
  TGI: 34.8 µM
SK-MEL-5 melanoma
  TGI: 30 µM
OVCAR-3 ovarian
  TGI: > 100 µM
OVCAR-5 ovarian
  TGI: > 100 µM
UACC-257 melanoma
  TGI: 33 µM
SW-620 colon
  TGI: 82.1 µM
CCRF-CEM leukemia
  TGI: 48.1 µM
SR leukemia
  TGI: 43.9 µM
NCI-H522 lung
  TGI: 34.5 µM
ACHN renal
  TGI: 45.6 µM
CAKI-1 renal
  TGI: > 100 µM
HT29 colon
  TGI: 56.3 µM
MDA-N
  TGI: 40 µM
NCI-H460 lung
  TGI: > 100 µM
SF-539 CNS
  TGI: 62.3 µM
MALME-3M melanoma
  TGI: 25 µM
K-562 leukemia
  TGI: 51.1 µM
A549 NSCLC
  TGI: 86.9 µM
SF-295 CNS
  TGI: 48.1 µM
NCI-H226 lung
  TGI: 61.6 µM
SF-268 CNS
  TGI: > 100 µM
LOX IMVI melanoma
  TGI: 34.5 µM
SK-MEL-2 melanoma
  TGI: 40.6 µM
RPMI-8226 leukemia
  TGI: 34.7 µM
SNB-75 CNS
  TGI: 87.3 µM
MDA-MB-231 breast
  TGI: 72.8 µM
KM12 colon
  TGI: 29.5 µM
TK-10 renal
  TGI: 37.4 µM
UACC-62 melanoma
  TGI: 31.2 µM
DU-145 prostate
  TGI: > 100 µM
NCI/ADR-RES ovarian
  TGI: > 100 µM
NCI-H23 lung
  TGI: 32.8 µM
PC-3 prostate
  TGI: > 100 µM
EKVX NSCLC
  TGI: 34.4 µM
HL-60(TB) leukemia
  TGI: 45.3 µM
T-47D breast
  TGI: > 100 µM
SK-OV-3 ovarian
  TGI: 76.6 µM
786-0 renal
  TGI: 67.1 µM
SN12C renal
  TGI: 47 µM
M14 melanoma
  TGI: 36 µM
HOP-62 NSCLC
  TGI: 60.9 µM
MDA-MB-435
  TGI: 28.1 µM

From PubChem BioAssay (NCI)
